According to patent US10493077B2, “Fused imidazo-piperidine JAK inhibitor compound” (THERAVANCE BIOPHARMA R&D IP, LLC, priority 2017, dated 2019):

Tested on: IL-6 stimulated CCL2 (MCP-1) in human PBMCs
Assay: Cellular JAK potency assay: inhibition of IL-6 stimulated CCL2 (MCP-1) in human PBMCs
Format: cell-based
Conditions: PBMC, 48 h stimulation, read-out: pIC50, inhibition of IL-6 stimulated CCL2 (MCP-1) (converted)
Protocol: The potency of the test compound for inhibition of interleukin-6 (IL-6) stimulated CCL2 (MCP-1) production was measured in human peripheral blood mononuclear cells (PBMCs) isolated from human whole blood (Stanford Blood Center). Because IL-6 signals through JAK, this assay provides a distal measure of JAK cellular potency.
(1) The protocol of Assay 3 paragraph (1) was followed up to the incubation with test compounds. In the present assay, after test compounds were added to wells and incubated, IL-6 (R&D Systems; final concentration 10 ng/ml) in pre-warmed assay media (50 μL) was added.
(2) After cytokine stimulation for 48 h, cells were centrifuged at 500 g for 5 min and supernatants were removed and frozen at −80° C. To determine the inhibitory potency of the test compound in response to IL-6, supernatant CCL2 (MCP-1) concentrations were measured via ELISA (R&D Systems). IC50 values were determined from analysis of the inhibition curves of concentration of CCL2/MCP-1 vs compound concentration. Data are expressed as pIC50 (negative decadic logarithm IC50) values.

Q: Which IC50 does the source give for `CCc1cc(O)c(F)cc1-c1cc(F)c2c(-c3nc4c([nH]3)CCN(C(=O)CN3CCOCC3)C4)n[nH]c2c1` [Compound 1, 1-(2-(6-(2-ethyl-5-fluoro-4-hydroxyphenyl)-4-fluoro-1H-indazol-3-yl)-1,4,6,7-tetrahydro-5H-imidazo[4,5-c]pyridin-5-yl)-2-morpholinoethan-1-one] here?
A: ~398 nM
